Assay results as given in patent US10316017B2, “COT modulators and methods of use thereof” (Gilead Sciences, Inc., priority 2015, dated 2019).

Key:
[1] = molecular target: T1, human Cot catalytic domain (30-397 amino acids) (Homo sapiens, UniProt P41279); assay: High Throughput Cot Biochemical Assay (KinEASE TR-FRET); conditions: Cot KinEASE TR-FRET, 400 μM ATP; read-out: IC50 HTRF
T1 construct: Purified recombinant human Cot catalytic domain (30-397 amino acids) was purchased from Cama Biosciences; purchased Cama Biosciences (so in the source)
T1 sequence (P41279 30-397): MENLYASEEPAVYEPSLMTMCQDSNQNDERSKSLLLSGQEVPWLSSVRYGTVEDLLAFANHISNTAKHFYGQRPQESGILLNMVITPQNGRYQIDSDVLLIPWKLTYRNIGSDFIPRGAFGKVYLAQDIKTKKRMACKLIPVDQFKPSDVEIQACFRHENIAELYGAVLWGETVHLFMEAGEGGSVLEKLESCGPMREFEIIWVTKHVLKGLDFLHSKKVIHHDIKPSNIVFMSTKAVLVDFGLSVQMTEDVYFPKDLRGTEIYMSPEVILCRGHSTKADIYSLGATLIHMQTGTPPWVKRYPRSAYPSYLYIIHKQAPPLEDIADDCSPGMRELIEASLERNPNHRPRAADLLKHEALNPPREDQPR
In short: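 Reaction of 5 nM recombinant human Cot catalytic domain (aa 30-397) with 1 μM STK3 peptide (XL665-labeled) and 400 μM ATP in 10 mM MOPS pH 7.0, 10 mM MgOAc, 1 mM DTT, 0.5 mg/mL BSA, 0.1% DMSO. Phosphopeptide detected by TR-FRET with europium anti-phospho antibody.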

[2] = system: TNFα production in LPS-stimulated human monocytes; assay: Cot Monocyte TNFα Cell Based Assay; conditions: Homo sapiens, Monocyte, LPS-stimulated human monocytes, TNFα TR-FRET; read-out: EC50 TNF
In short: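 Cells at 5,000/well were pretreated with compound for 1 h at 37 °C (0.5% DMSO final), then stimulated with 50 pg/ml LPS for 4 h at 37 °C. Supernatant TNFα was measured by two-antibody TR-FRET after overnight room-temperature incubation; values are percent of control between unstimulated and stimulated wells.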

SMILES	IC50 [1]	EC50 [2]
[2H][C@@](Nc1cc(Br)c2ncc(C#N)c(N[C@H](CCC#N)c3ccccc3)c2c1)(c1cn(C2CC2)nn1)c1ccccc1Cl [Example 930, 8-bromo-6-(((S)-(2-chlorophenyl)(1-cyclopropyl-1H-1,2,3-triazol-4-yl)methyl-d)amino)-4-(((R)-3-cyano-1-phenylpropyl)amino) quinoline-3-carbonitrile]	5 nM	66 nM
[2H][C@](Nc1cc(S(C)(=O)=O)c2ncc(C#N)c(NCC(C)(C)C)c2c1)(c1ccc(F)cc1)c1cn(C2CC2)nn1 [Example 931, (S)-6-(((1-cyclopropyl-1H-1,2,3-triazol-4-yl)(4-fluorophenyl)methyl-d)amino)-8-(methylsulfonyl)-4-(neopentylamino)quinoline-3-carbonitrile]	27 nM	447 nM
[2H][C@](Nc1cc(Cl)c2ncc(C#N)c(Nc3cccc4ccccc34)c2c1)(c1ccc(F)cc1)c1cn(C2CC2)nn1 [Example 933, (S)-8-chloro-6-(((1-cyclopropyl-1H-1,2,3-triazol-4-yl)(4-fluorophenyl)methyl-d)amino)-4-(naphthalen-1-ylamino) quinoline-3-carbonitrile]	314 nM	≥ 1000 nM
[2H][C@](Nc1cc(Cl)c2ncc(C#N)c(Nc3cccc(Cl)c3C#N)c2c1)(c1ccc(F)cc1)c1cn(C2CC2)nn1 [Example 934, (S)-8-chloro-4-((3-chloro-2-cyanophenyl)amino)-6-(((1-cyclopropyl-1H-1,2,3-triazol-4-yl)(4-fluorophenyl)methyl-d)amino)quinoline-3-carbonitrile]	371 nM	≥ 1000 nM
[2H][C@](Nc1cc(Cl)c2ncc(C#N)c(Nc3cccc(Cl)c3S(C)(=O)=O)c2c1)(c1ccc(F)cc1)c1cn(C2CC2)nn1 [Example 935, (S)-8-chloro-4-((3-chloro-2-(methylsulfonyl)phenyl)amino)-6-(((1-cyclopropyl-1H-1,2,3-triazol-4-yl)(4-fluorophenyl)methyl-d)amino)quinoline-3-carbonitrile]	≥ 10000 nM	≥ 1000 nM
[2H][C@](Nc1cc(Cl)c2ncc(C#N)c(NCC(C)(C)C)c2c1)(c1ccc(Cl)cc1)c1cn(C2CC2)nn1 [Example 936, (S)-8-chloro-6-(((4-chlorophenyl)(1-cyclopropyl-1H-1,2,3-triazol-4-yl)methyl-d)amino)-4-(neopentylamino) quinoline-3-carbonitrile]	12 nM	222 nM
[2H][C@](Nc1cc(Br)c2ncc(C#N)c(N[C@H](CCC#N)c3ccccc3)c2c1)(c1ccc(F)cc1)c1cn(C2CC2)nn1 [Example 937, 8-bromo-4-(((R)-3-cyano-1-phenylpropyl)amino)-6-(((S)-(1-cyclopropyl-1H-1,2,3-triazol-4-yl)(4-fluorophenyl)methyl-d)amino)quinoline-3-carbonitrile]	3 nM	35 nM
[2H][C@](Nc1cc(Cl)c2ncc(C#N)c(N[C@H](CCC#N)c3ccccc3)c2c1)(c1ccc(F)cc1)c1cn(C2(C(F)(F)F)CC2)nn1 [Example 938, 8-chloro-4-(((R)-3-cyano-1-phenylpropyl)amino)-6-(((S)-(4-fluorophenyl)(1-(1-(trifluoromethyl)cyclopropyl)-1H-1,2,3-triazol-4-yl)methyl-d)amino)quinoline-3-carbonitrile]	6 nM	71 nM
[2H][C@@](Nc1cc(C(C)=O)c2ncc(C#N)c(N[C@H](CCC#N)c3ccccc3)c2c1)(c1cn(C2CC2)nn1)c1ccccc1Cl [Example 939, 8-acetyl-6-(((S)-(2-chlorophenyl)(1-cyclopropyl-1H-1,2,3-triazol-4-yl)methyl-d)amino)-4-(((R)-3-cyano-1-phenylpropyl)amino) quinoline-3-carbonitrile]	4 nM	92 nM
CC[C@@H](Nc1c(C#N)cnc2c(Br)cc(N[C@@H](c3cccc(-c4ncco4)c3)c3cn(C4CC4)nn3)cc12)c1ccccc1 [Example 940, 8-bromo-6-(((S)-(1-cyclopropyl-1H-1,2,3-triazol-4-yl)(3-(oxazol-2-yl)phenyl)methyl)amino)-4-(((R)-1-phenylpropyl)amino) quinoline-3-carbonitrile]	4 nM	144 nM
CC[C@@H](Nc1c(C#N)cnc2c(C#N)cc(N[C@@H](c3cccc(-c4ncco4)c3)c3cn(C4CC4)nn3)cc12)c1ccccc1 [Example 941, 6-(((S)-(1-cyclopropyl-1H-1,2,3-triazol-4-yl) (3-(oxazol-2-yl)phenyl)methyl)amino)-4-(((R)-1-phenylpropyl)amino) quinoline-3,8-dicarbonitrile]	1 nM	52 nM
CC[C@@H](Nc1c(C#N)cnc2c(C#N)cc(N[C@@H](c3cccc(C(N)=O)c3)c3cn(C4CC4)nn3)cc12)c1ccccc1 [Example 942, 3-((S)-(1-cyclopropyl-1H-1,2,3-triazol-4-yl) ((3,8-dicyano-4-(((R)-1-phenylpropyl)amino)quinolin-6-yl)amino)methyl)benzamide]	1 nM	141 nM
CC[C@@H](Nc1c(C#N)cnc2c(C#N)cc(N[C@@H](c3cccc(C(=O)N4CC(F)(F)C4)c3)c3cn(C4CC4)nn3)cc12)c1ccccc1 [Example 943, 6-(((S)-(1-cyclopropyl-1H-1,2,3-triazol-4-yl)(3-(3,3-difluoroazetidine-1-carbonyl)phenyl)methyl)amino)-4-(((R)-1-phenylpropyl)amino)quinoline-3,8-dicarbonitrile]	4 nM	93 nM
CC[C@@H](Nc1c(C#N)cnc2c(Br)cc(N[C@@H](c3cccc(C(N)=O)c3)c3cn(C4CC4)nn3)cc12)c1ccccc1 [Example 944, 3-((S)-((8-bromo-3-cyano-4-(((R)-1-phenylpropyl)amino)quinolin-6-yl)amino)(1-cyc1opropyl-1H-1,2,3-triazol-4-yl)methyl)benzamide]	1 nM	51 nM
N#CCC[C@@H](Nc1c(C#N)cnc2c(C#N)cc(N[C@H](c3cn(C4CC4)nn3)c3ccccc3Cl)cc12)c1ccccc1 [Example 945, 6-(((S)-(2-chlorophenyl)(1-cyclopropyl-1H-1,2,3-triazol-4-yl)methyl)amino)-4-(((R)-3-cyano-1-phenylpropyl)amino)quinoline-3,8-dicarbonitrile]	2 nM	29 nM
[2H][C@](Nc1cc(Cl)c2ncc(C#N)c(Nc3cccc(Cl)c3C(C)=O)c2c1)(c1ccc(F)cc1)c1cn(C2CC2)nn1 [Example 946, (S)-4-((2-acetyl-3-chlorophenyl)amino)-8-chloro-6-(((1-cyclopropyl-1H-1,2,3-triazol-4-yl) (4-fluorophenyl)methyl-d)amino)quinoline-3-carbonitrile]	745 nM	≥ 1000 nM
[2H][C@](Nc1cc(Cl)c2ncc(C#N)c(Nc3cccc(Cl)c3)c2c1)(c1ccc(F)cc1)c1cn(C2CC2)nn1 [Example 947, (S)-8-chloro-4-((3-chlorophenyl)amino)-6-(((1-cyclopropyl-1H-1,2,3-triazol-4-yl)(4-fluorophenyl)methyl-d)amino)quinoline-3-carbonitrile]	14 nM	282 nM
CC[C@@H](Nc1c(C#N)cnc2c(C#N)cc(N[C@@H](c3cccc(C(=O)NC)c3)c3cn(C4CC4)nn3)cc12)c1ccccc1 [Example 948, 3-((S)-(1-cyclopropyl-1H-1,2,3-triazol-4-yl) ((3,8-dicyano-4-(((R)-1-phenylpropyl)amino)quinolin-6-yl)amino)methyl)-N-methylbenzamide]	1 nM	78 nM
N#CCC[C@@H](Nc1c(C#N)cnc2c(C#N)cc(N[C@@H](c3ccccc3)c3cn(C4CC4)nn3)cc12)c1ccccc1 [Example 949, 4-(((R)-3-cyano-1-phenylpropyl)amino)-6-(((S)-(1-cyclopropyl-1H-1,2,3-triazol-4-yl)(phenyl)methyl)amino) quinoline-3,8-dicarbonitrile]	1 nM	19 nM
[2H][C@](Nc1cc(-c2cncnc2)c2ncc(C#N)c(N[C@H](CCC(=O)O)c3ccccc3)c2c1)(c1ccc(F)cc1)c1cn(C2CC2)nn1 [Example 950, (R)-4-((3-cyano-6-(((S)-(1-cyclopropyl-1H-1,2,3-triazol-4-yl)(4-fluorophenyl)methyl-d)amino)-8-(pyrimidin-5-yl)quinolin-4-yl)amino)-4-phenylbutanoic acid]	≥ 10000 nM	≥ 1000 nM
[2H][C@@](Nc1cc(-c2cncnc2)c2ncc(C#N)c(N[C@H](CCC(=O)O)c3ccccc3)c2c1)(c1cn(C2CC2)nn1)c1ccccc1Cl [Example 951, (R)-4-((6-(((S)-(2-chlorophenyl)(1-cyclopropyl-1H-1,2,3-triazol-4-yl)methyl-d)amino)-3-cyano-8-(pyrimidin-5-yl)quinolin-4-yl)amino)-4-phenylbutanoic acid]	≥ 10000 nM	≥ 1000 nM
CC(C)(C)CNc1c(C#N)cnc2c(C#N)cc(N[C@H](c3cn(C4(C#N)CCC4)nn3)c3ccccc3Cl)cc12 [Example 952, (S)-6-(((2-chlorophenyl)(1-(1-cyanocyclobutyl)-1H-1,2,3-triazol-4-yl)methyl)amino)-4-(neopentylamino)quinoline-3,8-dicarbonitrile]	8 nM	134 nM
[2H][C@@](Nc1cc(I)c2ncc(C#N)c(NCC(C)(C)C)c2c1)(c1cn(C2CC2)nn1)c1ccccc1Cl [Example 953, (S)-6-(((2-chlorophenyl)(1-cyclopropyl-1H-1,2,3-triazol-4-yl)methyl-d)amino)-8-iodo-4-(neopentylamino)quinoline-3-carbonitrile]	111 nM	≥ 1000 nM
